Experiments:
[1] = molecular target: T1, Recombinant STAT3 protein (STAT3(G127-I722)) (Homo sapiens, UniProt P40763); assay: STAT3 Fluorescence Polarization (FP) Assay; assay type: binding; conditions: STAT3(G127-I722) 25 nM, probe 5-FAM-GpYLPQTV-NH2 2 nM, 45-minute incubation
T1 construct: STAT3(G127-I722)
Outline: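 Serially diluted compounds (1% DMSO) were mixed with 2 nM fluorescent phosphotyrosine peptide and 25 nM STAT3 construct G127-I722, pH 7.4, incubated 45 min at room temperature. IC50 values from fitted polarization curves are reported as categories A (≤100 nM), B, C, D (>10 μM).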

[2] = molecular target: T2, Recombinant STAT6 protein (STAT6(W123-T658)) (Homo sapiens, UniProt P42226); assay: STAT6 Fluorescence Polarization (FP) Assay; assay type: binding; conditions: STAT6(W123-T658) 250 nM, probe 5-FAM-ApYKPFQDLI-NH2 2 nM, 45-minute incubation
T2 construct: STAT6(W123-T658)
T2 sequence (P42226 123-658): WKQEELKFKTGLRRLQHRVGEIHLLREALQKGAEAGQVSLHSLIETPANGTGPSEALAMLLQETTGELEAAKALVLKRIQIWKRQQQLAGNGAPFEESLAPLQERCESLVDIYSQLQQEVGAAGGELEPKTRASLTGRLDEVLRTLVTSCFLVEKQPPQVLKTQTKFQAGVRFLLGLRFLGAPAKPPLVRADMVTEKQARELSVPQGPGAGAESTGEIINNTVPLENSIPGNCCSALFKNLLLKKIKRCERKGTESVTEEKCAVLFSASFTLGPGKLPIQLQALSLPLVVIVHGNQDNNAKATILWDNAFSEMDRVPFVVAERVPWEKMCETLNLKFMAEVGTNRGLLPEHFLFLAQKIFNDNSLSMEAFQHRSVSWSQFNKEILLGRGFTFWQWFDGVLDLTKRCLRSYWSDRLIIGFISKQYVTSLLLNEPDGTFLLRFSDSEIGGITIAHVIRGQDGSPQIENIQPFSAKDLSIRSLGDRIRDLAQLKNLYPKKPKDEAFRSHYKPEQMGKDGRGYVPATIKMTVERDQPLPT
Outline: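 Competitive displacement of a fluorescent phosphotyrosine peptide (2 nM) from recombinant STAT6 W123-T658 (250 nM), 45 min at room temperature in 10 mM HEPES pH 7.4, 50 mM NaCl, 2 mM DTT. mP fitted against log compound for IC50, grouped A (≤300 nM) to D (>30 μM).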

T1 sequence (P40763 127-722, species assumed): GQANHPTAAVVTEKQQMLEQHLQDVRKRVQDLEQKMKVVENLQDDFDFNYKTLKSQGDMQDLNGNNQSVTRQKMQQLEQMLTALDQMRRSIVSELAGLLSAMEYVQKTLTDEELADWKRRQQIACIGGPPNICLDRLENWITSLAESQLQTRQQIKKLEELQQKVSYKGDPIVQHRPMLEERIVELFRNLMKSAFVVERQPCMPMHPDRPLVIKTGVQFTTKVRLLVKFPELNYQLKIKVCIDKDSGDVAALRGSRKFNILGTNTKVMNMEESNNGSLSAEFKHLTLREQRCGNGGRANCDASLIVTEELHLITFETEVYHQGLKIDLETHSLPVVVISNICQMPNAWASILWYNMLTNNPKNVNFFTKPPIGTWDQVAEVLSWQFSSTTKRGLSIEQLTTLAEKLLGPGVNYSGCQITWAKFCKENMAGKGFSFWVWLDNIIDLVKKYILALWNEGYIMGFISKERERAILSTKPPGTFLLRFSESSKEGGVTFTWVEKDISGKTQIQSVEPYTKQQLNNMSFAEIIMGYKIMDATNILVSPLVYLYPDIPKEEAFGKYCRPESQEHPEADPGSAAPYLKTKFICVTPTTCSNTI

| Compound | IC50 [1] | IC50 [2] |
| --- | --- | --- |
| O=C(N[C@H]1C[C@H]2C[C@H]2C[C@H]2CC[C@@H](C(=O)N3CC(c4ncccn4)C3)N2C1=O)c1cc2cc(C(F)P(=O)(O)O)ccc2s1 (stereo partly drawn) [Example 317, (fluoro(2-(((3S,6S,7aR,8aS,9aR)-5-oxo-3-(3-(pyrimidin-2-yl)azetidine-1-carbonyl)decahydro-1H-cyclopropa[d]pyrrolo[1,2-a]azocin-6-yl)carbamoyl)benzo[b]thiophen-5-yl)methyl)phosphonic acid] | < 0.1 µM | 3 to 30 µM |
| COc1ccncc1C1CN(C(=O)[C@@H]2CC[C@@H]3C[C@@H]4C[C@@H]4C[C@H](NC(=O)c4cc5cc(C(F)P(=O)(O)O)ccc5s4)C(=O)N32)C1 (stereo partly drawn) [Example 318, (fluoro(2-(((3S,6S,7aR,8aS,9aR)-3-(3-(4-methoxypyridin-3-yl)azetidine-1-carbonyl)-5-oxodecahydro-1H-cyclopropa[d]pyrrolo[1,2-a]azocin-6-yl)carbamoyl)benzo[b]thiophen-5-yl)methyl)phosphonic acid] | < 0.1 µM | 3 to 30 µM |
| Cc1cnc(C2CN(C(=O)[C@@H]3CC[C@@H]4C[C@H]5C[C@H]5C[C@H](NC(=O)c5cc6cc(C(F)P(=O)(O)O)ccc6s5)C(=O)N43)C2)o1 (stereo partly drawn) [Example 324, (fluoro(2-(((3S,6S,7aS,8aR,9aR)-3-(3-(5-methyloxazol-2-yl)azetidine-1-carbonyl)-5-oxodecahydro-1H-cyclopropa[d]pyrrolo[1,2-a]azocin-6-yl)carbamoyl)benzo[b]thiophen-5-yl)methyl)phosphonic acid] | 0.1 to 1 µM | 3 to 30 µM |
| Cc1noc(C2CN(C(=O)[C@@H]3CC[C@@H]4C[C@H]5C[C@H]5C[C@H](NC(=O)c5cc6cc(C(F)P(=O)(O)O)ccc6s5)C(=O)N43)C2)n1 (stereo partly drawn) [Example 326, (fluoro(2-(((3S,6S,7aS,8aR,9aR)-3-(3-(3-methyl-1,2,4-oxadiazol-5-yl)azetidine-1-carbonyl)-5-oxodecahydro-1H-cyclopropa[d]pyrrolo[1,2-a]azocin-6-yl)carbamoyl)benzo[b]thiophen-5-yl)methyl)phosphonic acid] | 0.1 to 1 µM | 3 to 30 µM |
| Cc1nnc(C2CN(C(=O)[C@@H]3CC[C@@H]4C[C@H]5C[C@H]5C[C@H](NC(=O)c5cc6cc(C(F)P(=O)(O)O)ccc6s5)C(=O)N43)C2)o1 (stereo partly drawn) [Example 327, (fluoro(2-(((3S,6S,7aS,8aR,9aR)-3-(3-(5-methyl-1,3,4-oxadiazol-2-yl)azetidine-1-carbonyl)-5-oxodecahydro-1H-cyclopropa[d]pyrrolo[1,2-a]azocin-6-yl)carbamoyl)benzo[b]thiophen-5-yl)methyl)phosphonic acid] | 0.1 to 1 µM | 3 to 30 µM |
| NC(=O)N1C[C@H](NC(=O)[C@@H]2CC[C@@H]3C[C@H]4C[C@H]4C[C@H](NC(=O)c4cc5cc(C(F)P(=O)(O)O)ccc5s4)C(=O)N32)[C@@H](F)C1 (stereo partly drawn) [Example 330, ((2-(((3S,6S,7aS,8aR,9aR)-3-(((3S,4S)-1-carbamoyl-4-fluoropyrrolidin-3-yl)carbamoyl)-5-oxodecahydro-1H-cyclopropa[d]pyrrolo[1,2-a]azocin-6-yl)carbamoyl)benzo[b]thiophen-5-yl)fluoromethyl)phosphonic acid] | < 0.1 µM | 0.3 to 3 µM |
| CS(=O)(=O)CC1CN(C(=O)[C@@H]2CC[C@@H]3C[C@H]4C[C@H]4C[C@H](NC(=O)c4cc5cc(C(F)P(=O)(O)O)ccc5s4)C(=O)N32)C1 (stereo partly drawn) [Example 333, (fluoro(2-(((3S,6S,7aS,8aR,9aR)-3-(3-((methylsulfonyl)methyl)azetidine-1-carbonyl)-5-oxodecahydro-1H-cyclopropa[d]pyrrolo[1,2-a]azocin-6-yl)carbamoyl)benzo[b]thiophen-5-yl)methyl)phosphonic acid] | < 0.1 µM | 3 to 30 µM |
| COc1cc(C2CN(C(=O)[C@@H]3CC[C@@H]4C[C@H]5C[C@H]5C[C@H](NC(=O)c5cc6cc(C(F)P(=O)(O)O)ccc6s5)C(=O)N43)C2)on1 (stereo partly drawn) [Example 336, (fluoro(2-(((3S,6S,7aS,8aR,9aR)-3-(3-(3-methoxyisoxazol-5-yl)azetidine-1-carbonyl)-5-oxodecahydro-1H-cyclopropa[d]pyrrolo[1,2-a]azocin-6-yl)carbamoyl)benzo[b]thiophen-5-yl)methyl)phosphonic acid] | 0.1 to 1 µM | 3 to 30 µM |
| Cc1cc(C2CN(C(=O)[C@@H]3CC[C@@H]4C[C@H]5C[C@H]5C[C@H](NC(=O)c5cc6cc(C(F)P(=O)(O)O)ccc6s5)C(=O)N43)C2)no1 (stereo partly drawn) [Example 337, (fluoro(2-(((3S,6S,7aS,8aR,9aR)-3-(3-(5-methylisoxazol-3-yl)azetidine-1-carbonyl)-5-oxodecahydro-1H-cyclopropa[d]pyrrolo[1,2-a]azocin-6-yl)carbamoyl)benzo[b]thiophen-5-yl)methyl)phosphonic acid] | < 0.1 µM | 3 to 30 µM |

More lines, now with the values ahead:

| IC50 [1] | IC50 [2] | Compound |
| --- | --- | --- |
| < 0.1 µM | 0.3 to 3 µM | O=C(N[C@H]1C[C@H]2C[C@H]2C[C@H]2CC[C@@H](C(=O)N3CC[C@H](c4cnccc4F)C3)N2C1=O)c1cc2cc(C(F)P(=O)(O)O)ccc2s1 (stereo partly drawn) [Example 313, (fluoro(2-(((3S,6S,7aR,8aS,9aR)-3-((R)-3-(4-fluoropyridin-3-yl)pyrrolidine-1-carbonyl)-5-oxodecahydro-1H-cyclopropa[d]pyrrolo[1,2-a]azocin-6-yl)carbamoyl)benzo[b]thiophen-5-yl)methyl)phosphonic acid] |
| < 0.1 µM | 3 to 30 µM | Cc1ccncc1C1CN(C(=O)[C@@H]2CC[C@@H]3C[C@@H]4C[C@@H]4C[C@H](NC(=O)c4cc5cc(C(F)P(=O)(O)O)ccc5s4)C(=O)N32)C1 (stereo partly drawn) [Example 320, (fluoro(2-(((3S,6S,7aR,8aS,9aR)-3-(3-(4-methylpyridin-3-yl)azetidine-1-carbonyl)-5-oxodecahydro-1H-cyclopropa[d]pyrrolo[1,2-a]azocin-6-yl)carbamoyl)benzo[b]thiophen-5-yl)methyl)phosphonic acid] |
| < 0.1 µM | 3 to 30 µM | O=C(N[C@H]1C[C@@H]2C[C@@H]2C[C@H]2CC[C@@H](C(=O)N3CC(c4ncco4)C3)N2C1=O)c1cc2cc(C(F)P(=O)(O)O)ccc2s1 (stereo partly drawn) [Example 322, (fluoro(2-(((3S,6S,7aS,8aR,9aR)-3-(3-(oxazol-2-yl)azetidine-1-carbonyl)-5-oxodecahydro-1H-cyclopropa[d]pyrrolo[1,2-a]azocin-6-yl)carbamoyl)benzo[b]thiophen-5-yl)methyl)phosphonic acid] |
| 0.1 to 1 µM | 3 to 30 µM | Cc1cc(C2CN(C(=O)[C@@H]3CC[C@@H]4C[C@H]5C[C@H]5C[C@H](NC(=O)c5cc6cc(C(F)P(=O)(O)O)ccc6s5)C(=O)N43)C2)on1 (stereo partly drawn) [Example 328, (fluoro(2-(((3S,6S,7aS,8aR,9aR)-3-(3-(3-methylisoxazol-5-yl)azetidine-1-carbonyl)-5-oxodecahydro-1H-cyclopropa[d]pyrrolo[1,2-a]azocin-6-yl)carbamoyl)benzo[b]thiophen-5-yl)methyl)phosphonic acid] |
| < 0.1 µM | 3 to 30 µM | Cn1cnnc1C1CN(C(=O)[C@@H]2CC[C@@H]3C[C@@H]4C[C@@H]4C[C@H](NC(=O)c4cc5cc(C(F)P(=O)(O)O)ccc5s4)C(=O)N32)C1 (stereo partly drawn) [Example 331, (fluoro(2-(((3S,6S,7aR,8aS,9aR)-3-(3-(4-methyl-4H-1,2,4-triazol-3-yl)azetidine-1-carbonyl)-5-oxodecahydro-1H-cyclopropa[d]pyrrolo[1,2-a]azocin-6-yl)carbamoyl)benzo[b]thiophen-5-yl)methyl)phosphonic acid] |
| 1 to 10 µM | > 30 µM | O=C(N[C@H]1C[C@@H]2C[C@@H]2C[C@H]2CC[C@@H](C(=O)N3CC(Oc4cnccn4)C3)N2C1=O)c1cc2cc(CP(=O)(O)O)ccc2s1 [Example 334, ((2-(((3S,6S,7aS,8aR,9aR)-5-oxo-3-(3-(pyrazin-2-yloxy)azetidine-1-carbonyl)decahydro-1H-cyclopropa[d]pyrrolo[1,2-a]azocin-6-yl)carbamoyl)benzo[b]thiophen-5-yl)methyl)phosphonic acid] |
| 1 to 10 µM | > 30 µM | Cn1cc(OC2CN(C(=O)[C@@H]3CC[C@@H]4C[C@H]5C[C@H]5C[C@H](NC(=O)c5cc6cc(CP(=O)(O)O)ccc6s5)C(=O)N43)C2)cn1 [Example 335, ((2-(((3S,6S,7aS,8aR,9aR)-3-(3-((1-methyl-1H-pyrazol-4-yl)oxy)azetidine-1-carbonyl)-5-oxodecahydro-1H-cyclopropa[d]pyrrolo[1,2-a]azocin-6-yl)carbamoyl)benzo[b]thiophen-5-yl)methyl)phosphonic acid] |

From US20250215030A1, “STAT MODULATORS AND USES THEREOF” (Recludix Pharma, Inc., priority 2022, published 2025)
